Measured values as given in US8367328B2, “Method for synthesizing DNA” (Takara Bio Inc., priority 1998, dated 2013).

Experiments:
[1] = target: T1, Taq DNA Polymerase (Thermus aquaticus, UniProt P19821); test: PCR with Taq DNA Polymerase in the presence of cationic complexes; format: biochemical; conditions: for Amount of amplified DNA relative to No Addition (=1), Taq: 100 pg E. coli JM109 genomic DNA, primers Eco1/Eco2, 30 cycles 98°C 5 s–68°C 2 min, FM-BIO 100
T1 construct: purchased Takara Shuzo Co., Ltd
Text: Using hexaamminecobalt (III) chloride ([Co(NH3)6]Cl3) (manufactured by Sigma), tris(ethylenediamine)cobalt (III) chloride ([Co(C2H8N2)3]Cl3) (manufactured by Aldrich), or tris(ethylenediamine)rhodium (III) trichloride•trihydrate ([Rh(C2H8N2)3]Cl3.3H2O) (manufactured by Aldrich), the effects on the amplification reaction by various kinds of DNA polymerases were examined. As the DNA polymerases, TaKaRa Taq DNA Polymerase (hereinafter referred to as “Taq DNA Polymerase” manufactured by Takara Shuzo Co., Ltd.), Pyrobest DNA Polymerase (manufactured by Takara Shuzo Co., Ltd.) and Ex Taq DNA Polymerase (manufactured by Takara Shuzo Co., Ltd.) were used.
A reaction mixture comprising Escherichia coli JM109 genomic DNA as a template, primers Eco1 and Eco2 as a primer pair, and DNA polymerase was prepared, and PCR was carried out. The compositions of the reaction mixture for each enzyme are as follows.
5 μl of buffer for 10×Taq PCR buffer (manufactured by Takara Shuzo Co., Ltd.), 0.2 mM each of dATP, dCTP, dGTP and dTTP, 1.25 U of Taq DNA Polymerase, 100 pg of Escherichia coli JM109 genomic DNA, and 10 pmol each of primers Eco1 and Eco2 (a final volume being 50 μl).
Further, an aqueous solution of the above-mentioned complexes each so as to have a final concentration of 50 μM, 100 μM, or 200 μM was added to the above reaction mixture.
The reaction was carried out in Fast mode by using TaKaRa PCR Thermal Cycler Personal (manufactured by Takara Shuzo Co., Ltd.). The reaction conditions are as follows. When using Taq DNA Polymerase and Pyrobest DNA Polymerase, the reaction in 30 cycles was carried out for each of these reaction mixtures, wherein one cycle of reaction comprises a process consisting of 98° C., 5 seconds—68° C., 2 minutes, and when using ExTaq DNA Polymerase, the reaction in 30 cycles was carried out for each of these reaction mixtures, wherein one cycle of reaction comprises a process consisting of 98° C., 5 seconds—68° C., 1 minute. After the termination of the reaction, 5 μl of the resulting reaction mixture was subjected to electrophoresis on 2% agarose gel containing ethidium bromide in an amount of 0.00005%. The gel after the electrophoresis was subjected to ultraviolet irradiation to visualize the band ascribed to the amplified product, whereby an amplified fragment was confirmed. The amount of amplified DNA was numerically explained by using a fluorescent image analyzer FM-BIO 100 (manufactured by Takara Shuzo Co., Ltd.).
The DNA polymerases used and the composition for the reaction mixture were similar to those in Example 17, except for the cationic complex, where in cases of using Taq DNA Polymerase and Pyrobest DNA Polymerase, hexaamminecobalt (III) chloride was added so as to have a final concentration of 100 μM, and in a case of using ExTaq DNA Polymerase, hexaamminecobalt (III) chloride was added so as to have a final concentration of 50 μM, respectively.
The reaction was carried out in Fast mode by using TaKaRa PCR Thermal Cycler Personal. The reaction conditions are as follows. When using Taq DNA Polymerase and Pyrobest DNA Polymerase, the reaction in 30 cycles was carried out, wherein one cycle of reaction comprises a process consisting of 98° C., […], 60 seconds or 80 seconds or 100 seconds or 120 seconds. When using ExTaq DNA Polymerase, the reaction in 30 cycles was carried out, wherein one cycle of reaction comprises a process consisting of 98° C., 5 seconds—68° C., 30 seconds or 40 seconds or 50 seconds or 60 seconds.
On the other hand, as a control, the time period or number of cycles for annealing and extension reaction were determined so as to obtain the same amount of the amount of amplified product for one without addition of the cationic complex mentioned above.
After the termination of the reaction, 5 μL of the resulting reaction mixture was subjected to electrophoresis on 2% agarose gel containing ethidium bromide in an amount of 0.00005%. […]

[2] = test system: Pyrobest DNA Polymerase; test: PCR with Pyrobest DNA Polymerase in the presence of cationic complexes; format: biochemical, Pyrococcus sp.; conditions: for Amount of amplified DNA relative to No Addition (=1), Pyrobest: 100 pg E. coli JM109 genomic DNA, primers Eco1/Eco2, 30 cycles 98°C 5 s–68°C 2 min, FM-BIO 100

T1 sequence (P19821 whole entry): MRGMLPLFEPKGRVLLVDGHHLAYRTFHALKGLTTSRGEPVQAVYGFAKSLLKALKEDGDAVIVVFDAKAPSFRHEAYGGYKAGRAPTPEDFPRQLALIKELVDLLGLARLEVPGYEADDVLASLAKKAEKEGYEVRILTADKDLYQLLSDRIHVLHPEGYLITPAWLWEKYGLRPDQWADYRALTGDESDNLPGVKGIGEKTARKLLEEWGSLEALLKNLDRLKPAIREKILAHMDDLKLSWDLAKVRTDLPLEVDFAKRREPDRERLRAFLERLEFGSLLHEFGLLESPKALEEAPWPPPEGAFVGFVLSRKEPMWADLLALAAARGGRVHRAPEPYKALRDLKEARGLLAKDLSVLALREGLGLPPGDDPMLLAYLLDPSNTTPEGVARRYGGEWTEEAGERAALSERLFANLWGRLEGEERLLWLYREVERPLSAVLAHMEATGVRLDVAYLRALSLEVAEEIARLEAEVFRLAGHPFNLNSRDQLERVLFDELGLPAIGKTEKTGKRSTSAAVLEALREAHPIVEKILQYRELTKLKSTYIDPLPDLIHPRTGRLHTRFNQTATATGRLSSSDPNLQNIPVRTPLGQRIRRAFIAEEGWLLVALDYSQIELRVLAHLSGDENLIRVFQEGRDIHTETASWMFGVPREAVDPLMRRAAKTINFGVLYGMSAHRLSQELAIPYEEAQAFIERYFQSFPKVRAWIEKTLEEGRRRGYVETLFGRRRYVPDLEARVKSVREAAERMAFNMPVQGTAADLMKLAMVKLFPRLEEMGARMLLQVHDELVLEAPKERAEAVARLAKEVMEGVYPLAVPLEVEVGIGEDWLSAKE

NCCN.NCCN.NCCN.[Cl-].[Cl-].[Cl-].[Co+3] [[Co(H2NCH2CH2NH2)3]Cl3, tris(ethylenediamine)cobalt (III) chloride]
Amount of amplified DNA relative to No Addition (=1), Taq ([1]; complex 50 μM): 2.6
Amount of amplified DNA relative to No Addition (=1), Taq ([1]; complex 100 μM): 3.0
Amount of amplified DNA relative to No Addition (=1), Pyrobest ([2]; complex 50 μM): 2.1
Amount of amplified DNA relative to No Addition (=1), Pyrobest ([2]; complex 100 μM): 2.2

N.N.N.N.N.N.[Cl-].[Cl-].[Cl-].[Co+3] [[Co(NH3)6]Cl3, hexaamminecobalt (III) chloride]
Amount of amplified DNA relative to No Addition (=1), Taq ([1]; complex 50 μM): 2.3
Amount of amplified DNA relative to No Addition (=1), Taq ([1]; complex 100 μM): 2.9
Amplification with one-half the usual enzyme amount versus usual amount without addition ([1]; Taq 0.625 U + 100 μM complex vs 1.25 U without addition): almost the same level
Amplification of desired long DNA fragment ([1]; Taq, 10 ng E. coli genome, primers Eco1/Eco5 (10 kb), 30 cycles 98°C 5 s–68°C 10 min, 10 μM or 20 μM, only slight without addition): excellently amplified
Reaction time period as fraction of that of no addition ([1]; Taq, 100 μM): about ⅗
Time Period Required (for same amount of amplified product) ([1]; Taq, 100 μM complex added, 98°C 5 s–68°C 60 s, 30 cycles (no addition: 120 s, 31 cycles, 4911 s)): 2953 s
Primer amount with which a fragment can still be amplified ([1]; Taq, 100 μM complex, primers 2–20 pmol tested, no amplification without addition): 2 pmol
Amount of template DNA at which amplification was still possible ([1]; Taq, 100 μM complex, templates 1 pg–1 ng tested, no amplification at 1 pg without addition): 1 pg
Amplification in low-magnesium reaction mixture ([1]; Taq, 0.75 mM magnesium chloride (usual 1.5 mM), 100 μM complex, no amplification without addition): allowed to amplify
Amount of amplified DNA relative to No Addition (=1), Pyrobest ([2]; complex 50 μM): 2.1
Amount of amplified DNA relative to No Addition (=1), Pyrobest ([2]; complex 100 μM): 2.1
Amount of amplified DNA relative to No Addition (=1), Pyrobest ([2]; complex 200 μM): 2.1
Amplification of desired long DNA fragment ([2]; Pyrobest, 10 ng E. coli genome, primers Eco1/Eco5 (10 kb), 30 cycles 98°C 5 s–68°C 10 min, 50 μM or 100 μM, only slight without addition): excellently amplified
Primer amount with which a fragment can still be amplified ([2]; Pyrobest, 100 μM complex, primers 2–20 pmol tested, no amplification without addition): 3.3 pmol
Amount of template DNA at which amplification was still possible ([2]; Pyrobest, 100 μM complex, templates 1 pg–1 ng tested, no amplification at 1 pg without addition): 1 pg
Amplification in low-magnesium reaction mixture ([2]; Pyrobest, 0.5 mM magnesium chloride (usual 1 mM), 100 μM complex, no amplification without addition): allowed to amplify

NCCN.NCCN.NCCN.O.O.O.[Cl][Rh]([Cl])[Cl] [[Rh(H2NCH2CH2NH2)3]Cl3, tris(ethylenediamine)rhodium (III) trichloride•trihydrate]
Amount of amplified DNA relative to No Addition (=1), Taq ([1]; complex 50 μM): 1.4
Amount of amplified DNA relative to No Addition (=1), Taq ([1]; complex 100 μM): 2.1
Amount of amplified DNA relative to No Addition (=1), Taq ([1]; complex 200 μM): 2.5
Amount of amplified DNA relative to No Addition (=1), Pyrobest ([2]; complex 50 μM): 1.4
Amount of amplified DNA relative to No Addition (=1), Pyrobest ([2]; complex 100 μM): 1.7
Amount of amplified DNA relative to No Addition (=1), Pyrobest ([2]; complex 200 μM): 2.0
